Results taken from BigSolDB 2.1.

CC1(C)COP(=O)(C(Nc2ccccc2)c2ccccc2)OC1 (stereo not drawn)
Conditions	solubility (mole fraction)
in 1,2-dichloroethane, 278.65 K	0.0102
in 1,2-dichloroethane, 283.65 K	0.0119
in 1,2-dichloroethane, 288.65 K	0.0143
in 1,2-dichloroethane, 293.25 K	0.0169
in 1,2-dichloroethane, 298.15 K	0.0191
in 1,2-dichloroethane, 303.15 K	0.0229
in 1,2-dichloroethane, 308.25 K	0.0265
in 1,2-dichloroethane, 313.15 K	0.031
in 1,2-dichloroethane, 318.15 K	0.035
in 1,2-dichloroethane, 323.15 K	0.0395
in 1,2-dichloroethane, 328.15 K	0.0437
in 1,2-dichloroethane, 333.15 K	0.0526
in 1,4-dioxane, 285.65 K	0.00609
in 1,4-dioxane, 288.65 K	0.00661
in 1,4-dioxane, 293.65 K	0.00739
in 1,4-dioxane, 298.15 K	0.00887
in 1,4-dioxane, 303.15 K	0.0103
in 1,4-dioxane, 308.15 K	0.0121
in 1,4-dioxane, 313.15 K	0.0139
in 1,4-dioxane, 318.15 K	0.0162
in 1,4-dioxane, 323.15 K	0.019
in 1,4-dioxane, 328.15 K	0.023
in THF, 278.65 K	0.00583
in THF, 283.65 K	0.00648
in THF, 288.15 K	0.00764
in THF, 293.25 K	0.00858
in THF, 298.25 K	0.0102
in THF, 303.15 K	0.0117
in THF, 307.95 K	0.0133
in THF, 313.15 K	0.0152
in THF, 318.05 K	0.0169
in THF, 322.65 K	0.0187
in THF, 327.15 K	0.0215
in THF, 332.65 K	0.0237
in acetone, 278.15 K	0.00244
in acetone, 283.75 K	0.00314
in acetone, 288.15 K	0.00432
in acetone, 293.75 K	0.00578
in acetone, 298.65 K	0.00728
in acetone, 302.75 K	0.00898
in acetone, 307.85 K	0.0112
in acetone, 311.75 K	0.0138
in acetone, 317.15 K	0.0171
in acetone, 321.25 K	0.0186
in acetonitrile, 278 K	0.00557
in acetonitrile, 285.65 K	0.0068
in acetonitrile, 288.75 K	0.00746
in acetonitrile, 293.75 K	0.00887
in acetonitrile, 298.25 K	0.0101
in acetonitrile, 303.25 K	0.0119
in acetonitrile, 308.15 K	0.0142
in acetonitrile, 312.75 K	0.0161
in acetonitrile, 317.65 K	0.0192
in acetonitrile, 322.45 K	0.0218
in acetonitrile, 327.75 K	0.0258
in acetonitrile, 335.35 K	0.0328
in benzene, 278.65 K	0.0011
in benzene, 283.65 K	0.00131
in benzene, 288.15 K	0.00162
in benzene, 293.25 K	0.00201
in benzene, 298.25 K	0.00245
in benzene, 303.15 K	0.00301
in benzene, 307.95 K	0.00381
in benzene, 313.15 K	0.00464
in benzene, 318.05 K	0.00519
in benzene, 322.65 K	0.00634
in benzene, 327.15 K	0.00711
in benzene, 332.65 K	0.0093
in benzene, 337.55 K	0.0107
in benzene, 343.15 K	0.0123
in benzene, 347.5 K	0.0149
in chloroform, 278.75 K	0.0352
in chloroform, 283.65 K	0.0382
in chloroform, 288.85 K	0.0403
in chloroform, 293.95 K	0.042
in chloroform, 298.35 K	0.0444
in chloroform, 303.25 K	0.0471
in chloroform, 307.75 K	0.0492
in chloroform, 313.15 K	0.0527
in chloroform, 317.95 K	0.0548
in chloroform, 322.75 K	0.0591
in chloroform, 327.95 K	0.0646
in dichloromethane, 278.65 K	0.00771
in dichloromethane, 283.25 K	0.00994
in dichloromethane, 288.65 K	0.012
in dichloromethane, 293.25 K	0.0152
in dichloromethane, 298.85 K	0.0189
in dichloromethane, 302.95 K	0.0232
in dichloromethane, 308.35 K	0.0274
in dichloromethane, 310.95 K	0.0317
in ethyl acetate, 293.65 K	0.00232
in ethyl acetate, 298.25 K	0.00278
in ethyl acetate, 303.15 K	0.00385
in ethyl acetate, 308.05 K	0.0046
in ethyl acetate, 312.95 K	0.00561
in ethyl acetate, 317.95 K	0.00671
in ethyl acetate, 322.95 K	0.00781
in ethyl acetate, 327.95 K	0.00913
in ethyl acetate, 332.75 K	0.0097
in ethyl acetate, 337.65 K	0.0111
in isopropanol, 278.15 K	0.0004
in isopropanol, 283.15 K	0.0005
in isopropanol, 288.35 K	0.00066
in isopropanol, 293.65 K	0.0008
in isopropanol, 298.15 K	0.00106
in isopropanol, 302.17 K	0.00128
in isopropanol, 307.95 K	0.00177
in isopropanol, 312.55 K	0.00203
in isopropanol, 317.55 K	0.00254
in isopropanol, 321.55 K	0.00318
in isopropanol, 326.65 K	0.00389
in isopropanol, 332.15 K	0.00485
in isopropanol, 337.55 K	0.00626
in isopropanol, 343.15 K	0.00791
in isopropanol, 347.5 K	0.00958
in methanol, 278.15 K	0.00151
in methanol, 283.65 K	0.002
in methanol, 289.15 K	0.00246
in methanol, 293.65 K	0.00312
in methanol, 298.15 K	0.00367
in methanol, 303.15 K	0.0045
in methanol, 307.95 K	0.00541
in methanol, 313.15 K	0.00662
in methanol, 318.15 K	0.00796
in methanol, 323.15 K	0.00984
in tetrachloromethane, 278.15 K	0.00015
in tetrachloromethane, 283.15 K	0.00019
in tetrachloromethane, 288.35 K	0.00026
in tetrachloromethane, 293.65 K	0.00034
in tetrachloromethane, 298.15 K	0.00044
in tetrachloromethane, 302.17 K	0.00051
in tetrachloromethane, 307.95 K	0.00066
in tetrachloromethane, 312.55 K	0.00085
in tetrachloromethane, 317.55 K	0.00103
in tetrachloromethane, 321.55 K	0.00121
in tetrachloromethane, 326.65 K	0.00143
in tetrachloromethane, 332.15 K	0.00203
in tetrachloromethane, 337.15 K	0.00246
